Data published in ChEMBL document CHEMBL1126063, “A novel probe for the cannabinoid receptor” (J Med Chem, 1992).

Legend:
Cannabinoid receptor = Cannabinoid receptor (Rattus norvegicus, UniProt Q9QZN9+P20272); assay: Compound was evaluated for the competitive inhibition of [3H]3-(1,1-Dimethyl-heptyl)-9-hydroxymethyl-6,6-dimethyl-6a,7,8,9,10,10a-hexahydro-6H-benzo[c]chromen-1-ol to cannabinoid receptor from synaptosomal membranes of rat whole brain
Columba livia [1] = assay: Effective dose injected to pigeons in drug discrimination test at a given period of 1.5 hours; format: functional; conditions: in Columbidae
Columba livia [2] = assay: Effective dose injected to pigeons in drug discrimination test at a given period of 4.5 hours; format: functional; conditions: in Columbidae
Columba livia [3] = assay: Effective dose injected to pigeons in drug discrimination test at a given period of 9.0 hours; format: functional; conditions: in Columbidae

Compound	Ki (Cannabinoid receptor) [nM]	ED50 (Columba livia [1]) [µg/kg]	ED50 (Columba livia [2]) [µg/kg]	ED50 (Columba livia [3]) [µg/kg]
CCCCCCC(C)(C)c1cc(O)c2c(c1)OC(C)(C)[C@@H]1CC=C(CO)CC21 (some centres not stated)	0.181	4	2	2
CCCCCCC(C)(C)c1cc(O)c2c(c1)OC(C)(C)[C@@H]1CC[C@@H](CO)CC21 (some centres not stated)	0.045	5	2	3
CCCCCCC(C)(C)c1cc(O)c2c(c1)OC(C)(C)C1CC=C(CO)CC21 (configuration not stated)	466	–	–	–
CCCCCc1cc(O)c2c(c1)OC(C)(C)[C@@H]1CCC(C)=C[C@@H]21 [DRONABINOL]	–	160	250	1210
